Experimental data from paper PMC11079024, “Identification of a family of species-selective complex I inhibitors as potential anthelmintics” (Nature Communications, 2024).
Read-outs that look alike come from different tables or passages of the source.

Tests used:
[1] = in vitro; settings: human
[2] = test system: ben-1 mutant (ECA882) C. elegans; assay: microbe, parasite or virus in culture; settings: Caenorhabditis elegans
Summary of the method: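 L1 larvae (~2 worms/μL in M9) in liquid NGM with 2-fold concentrated E. coli HB101, compound at 1% DMSO, 6 days at 20 °C shaking 165 rpm. Well images scored as summed worm-associated pixels, normalized to DMSO controls; relative viability averaged over at least three biological replicates.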

[3] = biological target: B. taurus (heart) complex I (Bos taurus, UniProt P03887+P17694+P42026); assay: biochemical; assay type: biochemical; settings: for IC50: B. taurus heart mitochondria, estimated from fitted dose-response curves, read-out: B. taurus Complex I IC50; for Log IC50 B. taurus complex I: log10 of IC50 in µM, B. taurus mitochondria
B. taurus (heart) complex I, sequence (P03887 whole entry): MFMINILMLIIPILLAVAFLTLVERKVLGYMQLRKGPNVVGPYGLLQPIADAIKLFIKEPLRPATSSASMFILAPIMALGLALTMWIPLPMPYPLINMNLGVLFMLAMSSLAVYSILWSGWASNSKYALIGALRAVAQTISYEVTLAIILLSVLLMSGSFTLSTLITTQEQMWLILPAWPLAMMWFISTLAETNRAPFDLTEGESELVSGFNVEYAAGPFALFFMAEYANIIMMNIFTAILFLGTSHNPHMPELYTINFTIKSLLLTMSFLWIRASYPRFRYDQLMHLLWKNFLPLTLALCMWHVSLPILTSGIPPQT
B. taurus (heart) complex I, sequence (P17694 34-463): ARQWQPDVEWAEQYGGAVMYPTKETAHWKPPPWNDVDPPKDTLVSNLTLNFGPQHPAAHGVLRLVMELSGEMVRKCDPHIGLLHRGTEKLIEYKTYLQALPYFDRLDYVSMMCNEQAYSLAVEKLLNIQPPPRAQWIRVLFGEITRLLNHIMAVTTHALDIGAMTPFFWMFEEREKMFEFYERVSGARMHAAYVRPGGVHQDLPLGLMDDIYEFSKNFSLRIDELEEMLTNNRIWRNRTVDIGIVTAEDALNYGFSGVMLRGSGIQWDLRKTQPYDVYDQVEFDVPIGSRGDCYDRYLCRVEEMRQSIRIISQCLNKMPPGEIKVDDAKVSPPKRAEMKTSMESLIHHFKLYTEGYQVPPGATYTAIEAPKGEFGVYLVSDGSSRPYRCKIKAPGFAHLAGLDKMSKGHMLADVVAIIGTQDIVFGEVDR
B. taurus (heart) complex I, sequence (P42026 38-216): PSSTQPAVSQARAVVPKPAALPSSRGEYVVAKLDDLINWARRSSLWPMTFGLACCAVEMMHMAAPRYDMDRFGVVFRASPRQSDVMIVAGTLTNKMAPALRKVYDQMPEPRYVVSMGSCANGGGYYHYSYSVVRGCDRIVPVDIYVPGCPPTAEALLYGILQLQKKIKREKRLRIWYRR
Summary of the method: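 Complex I activity followed as DCIP reduction (600 nm, 30 s reads, 15 min) with 80 μM NADH and 60 μM decylubiquinone in 25 mM KPi pH 7.5 containing 2 μM antimycin A and 2 mM KCN. Freeze-thawed mouse or bovine heart mitochondria at 0.2 mg/mL; initial-rate percent of solvent control, single-point 100 μM or dose-response.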

[4] = test system: L1 wild-type C. elegans; assay: whole plant or invertebrate; settings: Caenorhabditis elegans, 15 h, read-out: C. elegans KCN Survival Assay LC50
[5] = read-out: C. elegans (ben-1) Development & Viability Assay LC50
[6] = read-out: C. elegans ben-1 log10 LC50 (converted)
[7] = read-out: C. elegans ben-1(e1880) development/viability

Cc1nc2ccccc2n1Cc1ccc(Cl)cc1 [STK697993]
CC50 at 2 days ([1]; HEK293 Cell Viability Assay LC50): > 100 µM | LC50 [2, 5]: 40.1 µM | LC50 [2, 6]: 40.1 µM | Complex I IC50 ~Fold Change ([3]; B. taurus complex I IC50 relative to C. elegans complex I IC50): 2.72 | IC50 [3]: 0.3 µM | B. taurus: C. elegans IC50 Fold Change (Complex I IC50 ~Fold Change) ([3]; complex I IC50 ratio bovine heart / C. elegans): 2.72 | IC50 Fold change ([3]; fold-change in IC50 between B. taurus and C. elegans complex I): 2.72 | Log IC50 B. taurus complex I [3]: -0.52 µM | LC50 [4]: 8.2 µM

Cc1ccccc1OCCCCn1cnc2ccccc21 [Compound 7732524]
CC50 at 2 days ([1]; HEK293 Cell Viability Assay LC50, HEK293 cells, estimated from fitted dose-response curves, mean of at least two biological replicates): 49.9 µM | viability at 2 days, 3.13 µM ([1]; HEK293 cells (Flp-In-293), HEK293 viability, Dose 3.13 µM): 100% | viability at 2 days, 6.25 µM ([1]; HEK293 cells (Flp-In-293), HEK293 viability, Dose 6.25 µM): 100% | viability at 2 days, 12.5 µM ([1]; HEK293 cells (Flp-In-293), HEK293 viability, Dose 12.5 µM): 100% | viability at 2 days, 25 µM ([1]; HEK293 cells (Flp-In-293), HEK293 viability, Dose 25 µM): 93.2% | viability at 2 days, 50 µM ([1]; HEK293 cells (Flp-In-293), HEK293 viability, Dose 50 µM): 48.1% | viability at 2 days, 100 µM ([1]; HEK293 cells (Flp-In-293), HEK293 viability, Dose 100 µM): 13.7% | LC50 [2, 5]: 58.5 µM | viability at 15.6 µM [2, 7]: 100% | viability at 31.3 µM [2, 7]: 97% | viability at 62.5 µM [2, 7]: 42.4% | viability at 125 µM [2, 7]: 3.7% | viability at 250 µM [2, 7]: 3.3% | viability at 500 µM [2, 7]: 1.6% | viability at 1000 µM [2, 7]: 1.3% | LC50 [2, 6]: 58.5 µM | IC50 [3]: 0.31 µM | activity at 0.0001 µM ([3]; Dose 0.0001 µM, read-out: B. taurus mitochondrial complex I activity): 96.6% | activity at 0.0005 µM ([3]; Dose 0.0005 µM, read-out: B. taurus mitochondrial complex I activity): 102% | activity at 0.001 µM ([3]; Dose 0.001 µM, read-out: B. taurus mitochondrial complex I activity): 97% | activity at 0.0025 µM ([3]; Dose 0.0025 µM, read-out: B. taurus mitochondrial complex I activity): 93.8% | activity at 0.005 µM ([3]; Dose 0.005 µM, read-out: B. taurus mitochondrial complex I activity): 78.2% | activity at 0.013 µM ([3]; Dose 0.013 µM, read-out: B. taurus mitochondrial complex I activity): 91.3% | activity at 0.025 µM ([3]; Dose 0.025 µM, read-out: B. taurus mitochondrial complex I activity): 85.2% | activity at 0.063 µM ([3]; Dose 0.063 µM, read-out: B. taurus mitochondrial complex I activity): 72.1% | activity at 0.125 µM ([3]; Dose 0.125 µM, read-out: B. taurus mitochondrial complex I activity): 69.1% | activity at 0.313 µM ([3]; Dose 0.313 µM, read-out: B. taurus mitochondrial complex I activity): 48.9% | activity at 0.625 µM ([3]; Dose 0.625 µM, read-out: B. taurus mitochondrial complex I activity): 30.4% | activity at 1.5 µM ([3]; Dose 1.5 µM, read-out: B. taurus mitochondrial complex I activity): 15.7% | activity at 3 µM ([3]; Dose 3 µM, read-out: B. taurus mitochondrial complex I activity): 9.12% | activity at 15 µM ([3]; Dose 15 µM, read-out: B. taurus mitochondrial complex I activity): 0.75% | activity at 37.5 µM ([3]; Dose 37.5 µM, read-out: B. taurus mitochondrial complex I activity): 1.46% | activity at 75 µM ([3]; Dose 75 µM, read-out: B. taurus mitochondrial complex I activity): 1.41% | Log IC50 B. taurus complex I [3]: -0.51 µM | LC50 [4]: 6.4 µM
